# Data: US12479827B2, “Heteroaromatic carboxamide derivatives as plasma kallikrein inhibitors” (Boehringer Ingelheim International GmbH, priority 2020, dated 2025)
# pIC50, pKi: −log10 of the molar value.
# How the values were obtained:
# Format in all cases: biochemical
# human TK1 = target: T1, human TK1 (Homo sapiens, UniProt P06870); test: Inhibition of TK1 (Ki); settings: activated human TK1, substrate H-Pro-Phe-Arg-AMC, 24° C.
# T1 construct: purchased R&D Systems
# In short: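 Trypsin-activated human TK1 (31.25 nM) incubated at 24° C with 0.1 mM H-Pro-Phe-Arg-AMC and compound in Tris pH 7.8, 150 mM NaCl, 0.1% BSA, 0.05% Tween20, 1% DMSO. AMC fluorescence (ex 350/em 450 nm) read kinetically over 16 min; IC50 from four-parameter fit, converted to Ki using substrate KM.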
# Human PKK = target: T2, Human PKK (Homo sapiens, UniProt P03952); test: Inhibition of PKK using an endpoint assay (human PKK); settings: fluorogenic substrate H-Pro-Phe-Arg-AMC, 1 h room temperature, method names human or rat PKK, table does not say which
# T2 construct: purchased Enzyme Research Laboratories
# In short: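 Human PKK inhibition measured in 100 mM Tris, 150 mM NaCl, pH 7.8, 0.1% BSA, 0.05% Tween20, 1% DMSO. Endpoint format: reaction stopped with PPACK II at 1 μM final, fluorescence read at 355 nm excitation/460 nm emission.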
# [1] = target: T3, PKK in kaolin activated human platelet poor plasma (Homo sapiens, UniProt P03952); test: Inhibition of PKK in kaolin activated human PPP; settings: 25-750 μg/mL kaolin, global fit, text b200 calls the values IC90;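 also: readout is the rate of fluorogenic substrate cleavage in rfu per min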
# T3 construct: Platelet poor plasma (PPP) obtained from human wholeblood; from tissue
# Experimental: Platelet poor plasma (PPP) obtained from human wholeblood, anticoagulated with Na-Citrate, is incubated with various concentrations of the test compound together with either 25, 75, 250, or 750 μg/mL kaolin in assay buffer for 20 min at 37° C. such that for each kaolin dose used a concentration response is obtained for the test compound.
# T1 sequence (P06870 25-262): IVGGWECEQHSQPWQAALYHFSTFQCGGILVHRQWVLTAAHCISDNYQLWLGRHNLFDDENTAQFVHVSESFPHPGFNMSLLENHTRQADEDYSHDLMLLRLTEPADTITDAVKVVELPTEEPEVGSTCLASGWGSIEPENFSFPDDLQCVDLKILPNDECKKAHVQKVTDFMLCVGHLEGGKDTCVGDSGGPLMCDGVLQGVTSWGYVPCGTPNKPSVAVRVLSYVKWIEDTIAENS
# T2 sequence (P03952 20-390 limits assumed): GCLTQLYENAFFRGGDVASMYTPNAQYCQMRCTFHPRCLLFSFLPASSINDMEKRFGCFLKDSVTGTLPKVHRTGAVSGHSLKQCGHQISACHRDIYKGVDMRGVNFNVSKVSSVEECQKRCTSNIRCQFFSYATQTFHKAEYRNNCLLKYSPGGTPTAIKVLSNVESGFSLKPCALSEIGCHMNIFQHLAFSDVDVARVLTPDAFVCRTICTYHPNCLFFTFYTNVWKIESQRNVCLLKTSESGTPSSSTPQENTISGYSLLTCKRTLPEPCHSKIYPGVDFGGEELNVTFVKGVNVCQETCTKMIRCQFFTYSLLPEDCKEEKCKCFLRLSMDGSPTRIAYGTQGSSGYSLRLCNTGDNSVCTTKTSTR
# T2 sequence (P03952 391-638 limits assumed): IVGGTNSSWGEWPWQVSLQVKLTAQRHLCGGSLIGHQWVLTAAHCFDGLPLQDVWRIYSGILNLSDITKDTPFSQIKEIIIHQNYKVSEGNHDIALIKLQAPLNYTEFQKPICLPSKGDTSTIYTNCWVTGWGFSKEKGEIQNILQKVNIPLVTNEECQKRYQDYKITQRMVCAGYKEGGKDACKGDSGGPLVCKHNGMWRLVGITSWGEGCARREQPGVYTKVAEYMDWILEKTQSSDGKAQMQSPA
# T3 sequence (P03952 391-638 limits assumed): as above
# T3 sequence (P03952 20-390 limits assumed): as the sequence (P03952 20-390 limits assumed) above
SMILES,pKi (human TK1),pIC50 (Human PKK),pIC50 [1]
"Cc1nc(N2CC3CC3C2)c(C#N)cc1Cn1cc(C(=O)N[C@@H]2CCc3c2ncn3C)cn1 (stereo partly drawn) [Example 128, 1-[(6-{3-Azabicyclo[3.1.0]hexan-3-yl}-5-cyano-2-methylpyridin-3-yl)methyl]-N-[(4R)-1-methyl-1H,4H,5H,6H-cyclopenta[d]imidazol-4-yl]-1H-pyrazole-4-carboxamide]",< 5.00,8.29,5.86
"Cn1cnc2c1CC[C@H]2NC(=O)c1cnn(Cc2ccc(N3CC4CC4C3)nc2)c1 (stereo partly drawn) [Example 131, 1-[(6-{3-Azabicyclo[3.1.0]hexan-3-yl}pyridin-3-yl)methyl]-N-[(4R)-1-methyl-1H,4H,5H,6H-cyclopenta[d]imidazol-4-yl]-1H-pyrazole-4-carboxamide]",< 5.00,8.37,6.02
"Cc1nc(N2CC3CC3C2)ccc1Cn1cc(C(=O)N[C@@H]2CCc3c2ncn3C)cn1 (stereo partly drawn) [Example 133, 1-[(6-{3-Azabicyclo[3.1.0]hexan-3-yl}-2-methylpyridin-3-yl)methyl]-N-[(4R)-1-methyl-1H,4H,5H,6H-cyclopenta[d]imidazol-4-yl]-1H-pyrazole-4-carboxamide]",< 5.00,8.80,6.25
"Cn1cnc2c1CC[C@H]2NC(=O)c1cnn(Cc2ccc(N3CC4CC4C3)nc2C(F)(F)F)c1 (stereo partly drawn) [Example 134, 1-[(6-{3-Azabicyclo[3.1.0]hexan-3-yl}-2-(trifluoromethyl)pyridin-3-yl)methyl]-N-[(4R)-1-methyl-1H,4H,5H,6H-cyclopenta[d]imidazol-4-yl]-1H-pyrazole-4-carboxamide]",< 5.00,8.77,5.99
"Cn1cnc2c1CC[C@H]2NC(=O)c1cn(Cc2ccc(N3CC4CC4C3)nc2)nn1 (stereo partly drawn) [Example 135, 1-[(6-{3-Azabicyclo[3.1.0]hexan-3-yl}pyridin-3-yl)methyl]-N-[(4R)-1-methyl-1H,4H,5H,6H-cyclopenta[d]imidazol-4-yl]-1H-1,2,3-triazole-4-carboxamide]",< 5.00,8.38,6.04
"Cc1nc(N2CC3C(C2)C3(F)F)ncc1Cn1cnc(C(=O)N[C@@H]2CCc3c2ncn3C)c1 (stereo partly drawn) [Example 136, 1-[(2-{6,6-Difluoro-3-azabicyclo[3.1.0]hexan-3-yl}-4-methylpyrimidin-5-yl)methyl]-N-[(4R)-1-methyl-1H,4H,5H,6H-cyclopenta[d]imidazol-4-yl]-1H-imidazole-4-carboxamide]",< 5.00,8.70,6.51
"Cc1nc(N2CC3CC3C2)ncc1Cn1cc(C(=O)N[C@@H]2CCc3c2ncn3C)nn1 (stereo partly drawn) [Example 137, 1-[(2-{3-Azabicyclo[3.1.0]hexan-3-yl}-4-methylpyrimidin-5-yl)methyl]-N-[(4R)-1-methyl-1H,4H,5H,6H-cyclopenta[d]imidazol-4-yl]-1H-1,2,3-triazole-4-carboxamide]",< 5.00,8.36,6.12
"Cc1nc(N2CC3(CC3)C2)ccc1Cn1cc(C(=O)N[C@@H]2CCc3c2ncn3C)cn1 [Example 169, 1-[(6-{5-Azaspiro[2.3]hexan-5-yl}-2-methylpyridin-3-yl)methyl]-N-[(4R)-1-methyl-1H,4H,5H,6H-cyclopenta[d]imidazol-4-yl]-1H-pyrazole-4-carboxamide]",< 5.00,9.22,6.31
"Cc1nc(N2CC3(CC3)C2)ccc1Cn1cnc(C(=O)N[C@@H]2CCc3c2ncn3C)c1 [Example 170, 1-[(6-{5-Azaspiro[2.3]hexan-5-yl}-2-methylpyridin-3-yl)methyl]-N-[(4R)-1-methyl-1H,4H,5H,6H-cyclopenta[d]imidazol-4-yl]-1H-imidazole-4-carboxamide]",< 5.00,9.10,6.33
"Cc1nc(N2CC3CC3C2)ncc1Cn1cnc(C(=O)N[C@@H]2CCc3c2ncn3C)c1 (stereo partly drawn) [Example 171, 1-[(2-{3-Azabicyclo[3.1.0]hexan-3-yl}-4-methylpyrimidin-5-yl)methyl]-N-[(4R)-1-methyl-1H,4H,5H,6H-cyclopenta[d]imidazol-4-yl]-1H-imidazole-4-carboxamide]",< 5.00,8.59,6.57
"Cc1nc(N2CC3CC3C2)ccc1Cn1cc(C(=O)N[C@@H]2CCc3c2ncn3C)c2cncnc21 (stereo partly drawn) [Example 173, 7-[(6-{3-Azabicyclo[3.1.0]hexan-3-yl]-2-methylpyridin-3-yl)methyl]-N-[(4R)-1-methyl-1H,4H,5H,6H-cyclopenta[d]imidazol-4-yl]-7H-pyrrolo[2,3-d]pyrimidine-5-carboxamide]",< 5.00,9.22,6.14
"Cc1nc(N2CC3C(C2)C3(F)F)ncc1Cn1cc(C(=O)N[C@@H]2CCc3c2ncn3C)c2cncnc21 (stereo partly drawn) [Example 175, 7-[(2-{6,6-Difluoro-3-azabicyclo[3.1.0]hexan-3-yl}-4-methylpyrimidin-5-yl)methyl]-N-[(4R)-1-methyl-1H,4H,5H,6H-cyclopenta[d]imidazol-4-yl]-7H-pyrrolo[2,3-d]pyrimidine-5-carboxamide]",< 5.00,8.54,6.09
"Cc1nc(N2CC3CC3C2)ncc1Cn1cc(C(=O)N[C@@H]2CCc3c2ncn3C)cn1 (stereo partly drawn) [Example 177, 1-[(2-{3-Azabicyclo[3.1.0]hexan-3-yl}-4-methylpyrimidin-5-yl)methyl]-N-[(4R)-1-methyl-1H,4H,5H,6H-cyclopenta[d]imidazol-4-yl]-1H-pyrazole-4-carboxamide]",< 5.00,8.26,5.93
"Cc1nc(N2CC3C(C2)C3(F)F)ncc1Cn1cc(C(=O)N[C@@H]2CCc3c2ncn3C)nn1 (stereo partly drawn) [Example 178, 1-[(2-{6,6-Difluoro-3-azabicyclo[3.1.0]hexan-3-yl}-4-methylpyrimidin-5-yl)methyl]-N-[(4R)-1-methyl-1H,4H,5H,6H-cyclopenta[d]imidazol-4-yl]-1H-1,2,3-triazole-4-carboxamide]",< 5.00,8.30,6.07
"Cc1nc(N2CC3CC3C2)ccc1Cc1ccc(C(=O)N[C@@H]2CCc3c2ncn3C)o1 (stereo partly drawn) [Example 181, 5-[(6-{3-Azabicyclo[3.1.0]hexan-3-yl}-2-methylpyridin-3-yl)methyl]-N-[(4R)-1-methyl-1H,4H,5H,6H-cyclopenta[d]imidazol-4-yl]furan-2-carboxamide]",< 5.00,7.96,4.65
"Cn1cnc2c1CC[C@H]2NC(=O)c1cnn(Cc2ccc(N3CC4CC4C3)c(C#N)c2)c1 (stereo partly drawn) [Example 190, 1-[(4-{3-Azabicyclo[3.1.0]hexan-3-yl}-3-cyanophenyl)methyl]-N-[(4R)-1-methyl-1H,4H,5H,6H-cyclopenta[d]imidazol-4-yl]-1H-pyrazole-4-carboxamide]",< 5.00,8.82,5.97
"Cc1c(Cn2cc(C(=O)N[C@@H]3CCc4c3ncn4C)cn2)ccc(N2CC3CC3C2)c1C#N (stereo partly drawn) [Example 193, 1-[(4-{3-azabicyclo[3.1.0]hexan-3-yl}-3-cyano-2-methylphenyl)methyl]-N-[(4R)-1-methyl-1H,4H,5H,6H-cyclopenta[d]imidazol-4-yl]-1H-pyrazole-4-carboxamide]",< 5.00,9.40,6.60
